Patent US20200354426A1 (MEDIMMUNE LIMITED, priority 2016, published 2020)
pEC50: −log10 of the molar value. Like-named read-outs stand apart in the source and are kept apart here. Numbered stars: 1 amine (or outer) side, 2 acyl side, 3 side chain; on linkers, the order of the positions; unused ones are H or OH. Side chains are listed from the residue outwards. Peptide text beside a SMILES is read from it. * marks the point of attachment. γGlu = O=C(O)[C@H](CCC(=O)[*:2])N[*:1]; Palmitoyl = CCCCCCCCCCCCCCCC(=O)*; Ahx = NCCCCCC(=O)O

Columns and labels:
Experiment in all cases: cAMP activity assay in assay medium (assay 1)
Assay type in all cases: cell-based
[1] = molecular target: Human GLP1R (Homo sapiens, UniProt P43220); parameters: expressed in transfected cells; conditions: assay medium
Sequence of Human GLP1R (P43220 24-463): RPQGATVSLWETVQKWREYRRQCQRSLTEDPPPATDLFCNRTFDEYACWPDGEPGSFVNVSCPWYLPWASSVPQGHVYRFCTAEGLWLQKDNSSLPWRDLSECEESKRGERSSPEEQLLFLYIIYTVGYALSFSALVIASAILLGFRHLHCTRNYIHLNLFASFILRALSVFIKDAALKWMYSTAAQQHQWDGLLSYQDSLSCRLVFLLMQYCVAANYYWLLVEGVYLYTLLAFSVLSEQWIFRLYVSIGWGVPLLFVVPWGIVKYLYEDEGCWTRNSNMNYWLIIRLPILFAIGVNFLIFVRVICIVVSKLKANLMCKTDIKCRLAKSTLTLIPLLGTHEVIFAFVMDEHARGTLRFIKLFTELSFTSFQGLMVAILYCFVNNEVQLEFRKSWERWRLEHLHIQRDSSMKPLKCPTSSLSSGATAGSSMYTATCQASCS
Description: (§1) Biological Activity of Peptides in Cell-Based cAMP Activity Assay (Assay 1):
(§2) All sample dilutions were made in duplicate.

[2] = molecular target: T1, Human GIPr (Homo sapiens, UniProt P48546); conditions: assay medium; Table 4; read-out: hGIPR EC50
T1 construct: expressed in transfected cells
T1 sequence (P48546 22-466): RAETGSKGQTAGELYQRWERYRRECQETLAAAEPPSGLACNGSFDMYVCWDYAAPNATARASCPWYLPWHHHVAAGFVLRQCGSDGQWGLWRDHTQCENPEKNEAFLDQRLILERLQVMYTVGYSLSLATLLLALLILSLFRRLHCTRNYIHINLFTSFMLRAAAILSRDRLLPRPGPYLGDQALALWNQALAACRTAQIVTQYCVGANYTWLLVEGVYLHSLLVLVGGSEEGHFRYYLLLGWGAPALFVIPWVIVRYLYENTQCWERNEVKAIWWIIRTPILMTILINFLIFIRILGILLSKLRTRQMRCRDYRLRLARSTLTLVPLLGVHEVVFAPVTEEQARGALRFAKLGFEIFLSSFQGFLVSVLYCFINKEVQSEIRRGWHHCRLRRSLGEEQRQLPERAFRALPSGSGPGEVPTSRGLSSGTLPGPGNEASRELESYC
Description: as §1, §2

[3] = molecular target: T2, Human GlucR (Homo sapiens, UniProt P47871); conditions: assay medium
T2 construct: expressed in transfected cells
T2 sequence (P47871 26-477): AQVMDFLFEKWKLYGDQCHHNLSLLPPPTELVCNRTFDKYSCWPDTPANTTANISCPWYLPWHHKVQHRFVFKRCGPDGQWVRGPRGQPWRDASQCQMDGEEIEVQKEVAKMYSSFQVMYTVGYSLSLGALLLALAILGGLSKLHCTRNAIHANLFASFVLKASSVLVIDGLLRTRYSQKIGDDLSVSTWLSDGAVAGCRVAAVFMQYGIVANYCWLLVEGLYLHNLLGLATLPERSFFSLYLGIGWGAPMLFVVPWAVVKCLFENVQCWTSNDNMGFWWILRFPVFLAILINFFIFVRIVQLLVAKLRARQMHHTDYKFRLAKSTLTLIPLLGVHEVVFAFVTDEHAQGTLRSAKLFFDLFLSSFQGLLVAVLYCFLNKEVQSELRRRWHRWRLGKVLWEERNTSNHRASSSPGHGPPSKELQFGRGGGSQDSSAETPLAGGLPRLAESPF
Description: as §1, §2

Row | SMILES | pEC50 ([1]; Table 4, read-out: hGLP1R EC50) | pEC50 [2] | pEC50 ([3]; Table 4, read-out: hGlucR EC50) | pEC50 ([1]; Table 3, C-terminal acid peptides, read-out: Human GLP1R EC50) | pEC50 ([3]; Table 3, C-terminal acid peptides, read-out: Human GlucR EC50)
1 | CCCCCCCCCCCCCCCC(=O)N[C@@H](CCC(=O)NCCCC[C@H](NC(=O)[C@@H](NC(=O)[C@H](Cc1ccccc1)NC(=O)[C@H](CC(=O)O)NC(=O)[C@H](CCC(N)=O)NC(=O)[C@H](C)NC(=O)[C@H](CCCNC(=N)N)NC(=O)[C@H](CCCNC(=N)N)NC(=O)[C@H](CO)NC(=O)[C@H](CC(=O)O)NC(=O)[C@H](CC(C)C)NC(=O)[C@H](Cc1ccc(O)cc1)NC(=O)[C@H](CCCCN)NC(=O)[C@H](CO)NC(=O)[C@H](Cc1ccc(O)cc1)NC(=O)[C@H](CC(=O)O)NC(=O)[C@H](CO)NC(=O)[C@@H](NC(=O)[C@H](Cc1ccccc1)NC(=O)[C@@H](NC(=O)CNC(=O)[C@H](CCC(N)=O)NC(=O)[C@H](CO)NC(=O)[C@@H](N)Cc1c[nH]cn1)[C@@H](C)O)[C@@H](C)O)C(C)C)C(=O)N[C@@H](Cc1c[nH]c2ccccc12)C(=O)N[C@@H](CC(C)C)C(=O)N[C@@H](CCC(=O)O)C(=O)N[C@@H](C)C(=O)NCC(=O)NCC(N)=O)C(=O)O [g746] | 7.94 |  | 10.45 |  | 
2 | CCCCCCCCCCCCCCCC(=O)NCCCCCC(=O)NCCCC[C@H](NC(=O)[C@H](C)NC(=O)[C@H](CCCNC(=N)N)NC(=O)[C@H](CCC(=O)O)NC(=O)[C@H](CO)NC(=O)[C@H](CC(=O)O)NC(=O)[C@H](CC(C)C)NC(=O)[C@H](Cc1ccc(O)cc1)NC(=O)[C@H](CCCCN)NC(=O)[C@H](CO)NC(=O)[C@H](Cc1ccc(O)cc1)NC(=O)[C@H](CC(=O)O)NC(=O)[C@H](CO)NC(=O)[C@@H](NC(=O)[C@H](Cc1ccccc1)NC(=O)[C@@H](NC(=O)CNC(=O)[C@H](CCC(N)=O)NC(=O)[C@H](CO)NC(=O)[C@@H](N)Cc1c[nH]cn1)[C@@H](C)O)[C@@H](C)O)C(=O)N[C@@H](CC(=O)O)C(=O)N[C@@H](Cc1ccccc1)C(=O)N[C@H](C(=O)N[C@@H](C)C(=O)N[C@@H](Cc1c[nH]c2ccccc12)C(=O)N[C@@H](CC(C)C)C(=O)N[C@@H](CCC(=O)O)C(=O)N[C@@H](CCCNC(=N)N)C(=O)NCC(=O)NCC(N)=O)C(C)C [g787] (H-HSQGTFTSDYSKYLDSERAK([Ahx-Palmitoyl])DFVAWLERGG-NH2; N-terminus assumed) | 8.18 |  | 10.36 |  | 
3 | CCCCCCCCCCCCCCCC(=O)N[C@@H](CCC(=O)NCCCC[C@H](NC(=O)[C@H](CO)NC(=O)[C@H](CC(=O)O)NC(=O)[C@H](CC(C)C)NC(=O)[C@H](Cc1ccc(O)cc1)NC(=O)[C@H](CCCCN)NC(=O)[C@H](CO)NC(=O)[C@H](Cc1ccc(O)cc1)NC(=O)[C@H](CC(=O)O)NC(=O)[C@H](CO)NC(=O)[C@@H](NC(=O)[C@H](Cc1ccccc1)NC(=O)[C@@H](NC(=O)CNC(=O)[C@H](CCC(=O)O)NC(=O)CNC(=O)[C@@H](N)Cc1c[nH]cn1)[C@@H](C)O)[C@@H](C)O)C(=O)N[C@@H](CCCNC(=N)N)C(=O)N[C@@H](C)C(=O)N[C@@H](C)C(=O)N[C@@H](CC(=O)O)C(=O)N[C@@H](Cc1ccccc1)C(=O)N[C@H](C(=O)N[C@@H](C)C(=O)N[C@@H](Cc1c[nH]c2ccccc12)C(=O)N[C@@H](CC(C)C)C(=O)N[C@H](C(=O)N[C@@H](C)C(=O)NCC(=O)NCC(N)=O)C(C)C)C(C)C)C(=O)O [g737] (H-HGEGTFTSDYSKYLDSK([γGlu-Palmitoyl])RAADFVAWLVAGG-NH2; N-terminus assumed) | 10.09 |  | 6.13 |  | 
4 | CCCCCCCCCCCCCCCC(=O)N[C@@H](CCC(=O)NCCCC[C@H](NC(=O)[C@H](Cc1ccc(O)cc1)NC(=O)[C@H](CCCNC(=N)N)NC(=O)[C@H](CO)NC(=O)[C@H](Cc1ccc(O)cc1)NC(=O)[C@H](CC(=O)O)NC(=O)[C@H](CO)NC(=O)[C@@H](NC(=O)[C@H](Cc1ccccc1)NC(=O)[C@@H](NC(=O)CNC(=O)[C@H](CCC(N)=O)NC(=O)[C@H](CO)NC(=O)[C@@H](N)Cc1c[nH]cn1)[C@@H](C)O)[C@@H](C)O)C(=O)N[C@@H](CC(=O)O)C(=O)N[C@@H](CO)C(=O)N[C@@H](CCC(=O)O)C(=O)N[C@@H](CCCNC(=N)N)C(=O)N[C@@H](C)C(=O)N[C@@H](CCCNC(=N)N)C(=O)N[C@@H](CC(=O)O)C(=O)N[C@@H](Cc1ccccc1)C(=O)N[C@H](C(=O)N[C@@H](C)C(=O)N[C@@H](Cc1c[nH]c2ccccc12)C(=O)N[C@@H](CC(C)C)C(=O)N[C@H](C(=O)N[C@@H](C)C(=O)NCC(=O)NCC(N)=O)C(C)C)C(C)C)C(=O)O [g821] | 10.25 |  | 11.33 |  | 
5 | CCCCCCCCCCCCCCCC(=O)N[C@@H](CCC(=O)NCCCC[C@H](NC(=O)[C@H](CCCCN)NC(=O)[C@H](CO)NC(=O)[C@H](Cc1ccc(O)cc1)NC(=O)[C@H](CC(=O)O)NC(=O)[C@H](CO)NC(=O)[C@@H](NC(=O)[C@H](Cc1ccccc1)NC(=O)[C@@H](NC(=O)CNC(=O)[C@H](CCC(N)=O)NC(=O)[C@H](CO)NC(=O)[C@@H](N)Cc1c[nH]cn1)[C@@H](C)O)[C@@H](C)O)C(=O)N[C@@H](CC(C)C)C(=O)N[C@@H](CC(=O)O)C(=O)N[C@@H](CO)C(=O)N[C@@H](CCC(=O)O)C(=O)N[C@@H](CCCNC(=N)N)C(=O)N[C@@H](C)C(=O)N[C@@H](CCCNC(=N)N)C(=O)N[C@@H](CC(=O)O)C(=O)N[C@@H](Cc1ccccc1)C(=O)N[C@H](C(=O)N[C@@H](C)C(=O)N[C@@H](Cc1c[nH]c2ccccc12)C(=O)N[C@@H](CC(C)C)C(=O)N[C@H](C(=O)N[C@@H](C)C(=O)NCC(=O)NCC(=O)O)C(C)C)C(C)C)C(=O)O [Peptide G931] (H-HSQGTFTSDYSKK([γGlu-Palmitoyl])LDSERARDFVAWLVAGG-OH; N-terminus assumed) |  |  |  | 9.89 | 10.75

Second part, the molecule after the results:

Row | pEC50 ([1]; Table 4, read-out: hGLP1R EC50) | pEC50 [2] | pEC50 ([3]; Table 4, read-out: hGlucR EC50) | pEC50 ([1]; Table 3, C-terminal acid peptides, read-out: Human GLP1R EC50) | pEC50 ([3]; Table 3, C-terminal acid peptides, read-out: Human GlucR EC50) | SMILES
6 | 10.80 | 6.90 |  |  |  | CCCCCCCCCCCCCCCC(=O)NCCCCCC(=O)NCCCC[C@H](NC(=O)[C@H](CO)NC(=O)[C@H](CC(=O)O)NC(=O)[C@H](CC(C)C)NC(=O)[C@H](Cc1ccc(O)cc1)NC(=O)[C@H](CCC(=O)O)NC(=O)[C@H](CO)NC(=O)[C@H](Cc1ccc(O)cc1)NC(=O)[C@H](CC(=O)O)NC(=O)[C@H](CO)NC(=O)[C@@H](NC(=O)[C@H](Cc1ccccc1)NC(=O)[C@@H](NC(=O)CNC(=O)[C@H](CCC(N)=O)NC(=O)CNC(=O)[C@@H](N)Cc1c[nH]cn1)[C@@H](C)O)[C@@H](C)O)C(=O)N[C@@H](CCCNC(=N)N)C(=O)N[C@@H](C)C(=O)N[C@@H](C)C(=O)N[C@@H](CC(=O)O)C(=O)N[C@@H](Cc1ccccc1)C(=O)N[C@H](C(=O)N[C@@H](C)C(=O)N[C@@H](Cc1c[nH]c2ccccc12)C(=O)N[C@@H](CC(C)C)C(=O)N[C@@H](CCC(=O)O)C(=O)N[C@@H](CCCNC(=N)N)C(=O)NCC(=O)NCC(N)=O)C(C)C [g683]
7 | 11.24 | 8.83 |  |  |  | CCCCCCCCCCCCCCCC(=O)N[C@@H](CCC(=O)NCCCC[C@H](NC(=O)[C@H](CC(=O)O)NC(=O)[C@H](CO)NC(=O)[C@@H](NC(=O)[C@H](Cc1ccccc1)NC(=O)[C@@H](NC(=O)CNC(=O)[C@H](CCC(N)=O)NC(=O)[C@H](CO)NC(=O)[C@@H](N)Cc1c[nH]cn1)[C@@H](C)O)[C@@H](C)O)C(=O)N[C@@H](CO)C(=O)N[C@@H](CCCCN)C(=O)N[C@@H](Cc1ccc(O)cc1)C(=O)N[C@@H](CC(C)C)C(=O)N[C@@H](CC(=O)O)C(=O)N[C@@H](CO)C(=O)N[C@@H](CCCNC(=N)N)C(=O)N[C@@H](CCCNC(=N)N)C(=O)N[C@@H](C)C(=O)N[C@@H](CCC(N)=O)C(=O)N[C@@H](CC(=O)O)C(=O)N[C@@H](Cc1ccccc1)C(=O)N[C@H](C(=O)N[C@@H](CCC(N)=O)C(=O)N[C@@H](Cc1c[nH]c2ccccc12)C(=O)N[C@@H](CC(C)C)C(=O)N[C@@H](CCC(=O)O)C(=O)N[C@@H](C)C(=O)NCC(=O)NCC(N)=O)C(C)C)C(=O)O [g717] (H-HSQGTFTSDK([γGlu-Palmitoyl])SKYLDSRRAQDFVQWLEAGG-NH2; N-terminus assumed)
8 | 10.84 |  | 9.71 |  |  | CCCCCCCCCCCCCCCC(=O)NCCCCCC(=O)NCCCC[C@H](NC(=O)[C@H](CO)NC(=O)[C@H](CC(=O)O)NC(=O)[C@H](CC(C)C)NC(=O)[C@H](Cc1ccc(O)cc1)NC(=O)[C@H](CCC(=O)O)NC(=O)[C@H](CO)NC(=O)[C@H](Cc1ccc(O)cc1)NC(=O)[C@H](CC(=O)O)NC(=O)[C@H](CO)NC(=O)[C@@H](NC(=O)[C@H](Cc1ccccc1)NC(=O)[C@@H](NC(=O)CNC(=O)[C@H](CCC(N)=O)NC(=O)CNC(=O)[C@@H](N)Cc1c[nH]cn1)[C@@H](C)O)[C@@H](C)O)C(=O)N[C@@H](CCCNC(=N)N)C(=O)N[C@@H](C)C(=O)N[C@@H](CCCNC(=N)N)C(=O)N[C@@H](CC(=O)O)C(=O)N[C@@H](Cc1ccccc1)C(=O)N[C@H](C(=O)N[C@@H](CCC(=O)O)C(=O)N[C@@H](Cc1c[nH]c2ccccc12)C(=O)N[C@@H](CC(C)C)C(=O)N[C@@H](CCC(=O)O)C(=O)N[C@@H](CCCNC(=N)N)C(=O)NCC(=O)NCC(N)=O)C(C)C [g682]
